Marks after values point to notes of the source that are not given here.
Tests used:
Type in all cases: in vivo
Conditions in all cases: 100 = 100% disease control
Septoria tritici = experiment: Test G: wheat leaf blotch on wheat seedlings, sprayed the day before inoculation, visual disease rating
Outline: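 Disease was rated visually after Septoria tritici inoculation, 48 h saturated incubation at 24°C and 19 days in a 20°C growth chamber. Inoculation followed one day after run-off spraying of seedlings with compound at 200 ppm (≈500 g/ha) or, where marked, 40 ppm, formulated in acetone/water with surfactant.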

[1] = test system: Puccinia recondita f. sp. tritici; experiment: Test H: wheat leaf rust, test suspension sprayed after inoculation of wheat seedlings, visual disease rating
Outline: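 Wheat seedlings inoculated with P. recondita spores, held 24 h saturated at 20 °C, then 2 days in growth chamber at 20 °C; compound suspension (acetone/water with Trem 014) sprayed to run-off afterwards. Rated visually; 200 ppm (≈500 g/ha) unless marked *, which denotes 40 ppm.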

[2] = test system: Erysiphe graminis f. sp. tritici; experiment: Test J: wheat powdery mildew on wheat seedlings, sprayed the day before inoculation, visual disease rating
Outline: (§1)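 Test rate was 200 ppm, sprayed to run-off and equal to 500 g/ha, or 40 ppm where marked. The compound was first taken up in acetone at 3% of final volume and suspended in acetone/purified water (50/50) containing 250 ppm Trem® 014.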

Botrytis cinerea = experiment: Test C: tomato Botrytis on tomato seedlings, sprayed the day before inoculation, visual disease rating
Outline: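 Each compound is first taken up in acetone at 3% of the final volume and then brought to the desired ppm in a 50:50 acetone–water mix with 250 ppm surfactant (polyhydric alcohol esters). Tomato seedlings receive the suspension to run-off, normally at 200 ppm, occasionally 40 ppm.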

Septoria nodorum = experiment: Test F: wheat glume blotch on wheat seedlings, sprayed the day before inoculation, visual disease rating
Outline: as §1

[3] = test system: Puccinia recondita f. sp. tritici; experiment: Test I: wheat leaf rust on wheat seedlings, sprayed the day before inoculation, visual disease rating
Outline: as §1

Alternaria solani = experiment: Test D: tomato early blight, sprayed the day before inoculation, visual disease rating
Outline: as §1

[4] = 40 ppm (marked *), 0 = no control
[5] = 200 ppm, 0 = no control relative to controls

SMILES	Test G disease control rating (Septoria tritici; [5])	Test H disease control rating [1, 5]	Test J disease control rating [2, 5]	Test C disease control rating (Botrytis cinerea; [5])	Test F disease control rating (Septoria nodorum; [5])	Test I disease control rating [3, 5]	Test D disease control rating (Alternaria solani; [5])	further results
Fc1ccc(F)c(-c2c(Br)nc(Cl)n2-c2ccc(Cl)cc2)c1Cl [compound 385]								Test G disease control rating (Septoria tritici; [4]): 95* %; Test H disease control rating [1, 4]: 0* %; Test J disease control rating [2, 4]: 99* %; Test C disease control rating (Botrytis cinerea; [4]): 99* %; Test F disease control rating (Septoria nodorum; [4]): 0* %; Test I disease control rating [3, 4]: 95* %; Test D disease control rating (Alternaria solani; [4]): 99* %
COc1cc(F)c(-c2c(Cl)nc(Cl)n2-c2ccc(Cl)nc2)c(F)c1 [compound 406]	93%	100%	100%	100%	100%	100%	100%	
COc1ccc(F)c(-c2c(Cl)ncn2-c2cccc(C)c2)c1F [compound 300]	91%	48%	99%	99%	0%	97%	98%	
COc1cc(F)c(-c2c(Cl)nc(Cl)n2-c2ccc(Cl)nc2Cl)c(F)c1 [compound 674]	99%	98%	94%	99%	98%	100%	93%	
Cc1ccc(-n2c(C)nc(C)c2-c2c(F)ccc(F)c2Cl)cc1 [compound 493]								Test G disease control rating (Septoria tritici; 40 ppm (marked *)): 93* %; Test H disease control rating ([1]; 40 ppm (marked *)): 0* %; Test J disease control rating ([2]; 40 ppm (marked *)): 99* %; Test C disease control rating (Botrytis cinerea; 40 ppm (marked *)): 96* %; Test F disease control rating (Septoria nodorum; 40 ppm (marked *)): 0* %; Test I disease control rating ([3]; 40 ppm (marked *)): 97* %; Test D disease control rating (Alternaria solani; 40 ppm (marked *)): 99* %
CC(=O)Nc1ccc(-n2c(Br)nc(Cl)c2-c2c(F)cccc2F)cc1 [compound 643]								Test G disease control rating (Septoria tritici; 40 ppm (marked *)): 87* %; Test H disease control rating ([1]; 40 ppm (marked *)): 0* %; Test J disease control rating ([2]; 40 ppm (marked *)): 0* %; Test C disease control rating (Botrytis cinerea; 40 ppm (marked *)): 0* %; Test F disease control rating (Septoria nodorum; 40 ppm (marked *)): 0* %; Test I disease control rating ([3]; 40 ppm (marked *)): 52* %; Test D disease control rating (Alternaria solani; 40 ppm (marked *)): 0* %
Fc1cc(-n2c(Cl)nc(CCl)c2-c2cncc(Br)c2)ccc1Cl [compound 355]	3%	0%	0%	0%	0%	28%	0%	
Cc1nc(Cl)c(-c2c(F)ccc(F)c2F)n1-c1ccc(Cl)c(Cl)c1 [compound 480]	96%	0%	100%	100%	95%	99%	100%	
Fc1ccc(-n2c(Br)nc(Br)c2-c2c(F)cc(F)cc2F)cc1 [compound 462]								Test G disease control rating (Septoria tritici; 40 ppm (marked *)): 96* %; Test H disease control rating ([1]; 40 ppm (marked *)): 0* %; Test J disease control rating ([2]; 40 ppm (marked *)): 99* %; Test C disease control rating (Botrytis cinerea; 40 ppm (marked *)): 100* %; Test F disease control rating (Septoria nodorum; 40 ppm (marked *)): 0* %; Test I disease control rating ([3]; 40 ppm (marked *)): 78* %; Test D disease control rating (Alternaria solani; 40 ppm (marked *)): 100* %
Cc1nc(Br)c(-c2c(F)cccc2F)n1-c1ccc(Cl)c2ccccc12 [compound 337]								Test G disease control rating (Septoria tritici; [4]): 23* %; Test H disease control rating [1, 4]: 0* %; Test J disease control rating [2, 4]: 0* %; Test C disease control rating (Botrytis cinerea; [4]): 19* %; Test F disease control rating (Septoria nodorum; [4]): 0* %; Test I disease control rating [3, 4]: 0* %; Test D disease control rating (Alternaria solani; [4]): 0* %
COc1cncc(F)c1-c1c(Cl)nc(Cl)n1-c1ccc(Cl)c(F)c1 [compound 435]	99%	0%	0%	99%	0%	68%	24%	
Cc1nc(Cl)n(-c2ccc(F)cc2Cl)c1-c1ccc(Cl)cc1 [compound 503]	96%	0%	100%	99%	99%	100%	99%	
Cc1nc(Cl)c(-c2c(F)cc(F)cc2F)n1-c1ccc(OC(F)(F)F)cc1 [compound 612]	96%	0%	100%	99%	60%	8%	100%	
Cc1nc(Cl)n(-c2ccc(F)cc2)c1-c1c(F)ccc(F)c1F [compound 413]								Test G disease control rating (Septoria tritici; [4]): 14* %; Test H disease control rating [1, 4]: 9* %; Test J disease control rating [2, 4]: 0* %; Test C disease control rating (Botrytis cinerea; [4]): 100* %; Test F disease control rating (Septoria nodorum; [4]): 0* %; Test I disease control rating [3, 4]: 0* %; Test D disease control rating (Alternaria solani; [4]): 99* %
Fc1ccc(F)c(-c2c(Br)nc(Br)n2-c2ccc(Cl)cc2)c1F [compound 383]								Test G disease control rating (Septoria tritici; [4]): 96* %; Test H disease control rating [1, 4]: 0* %; Test J disease control rating [2, 4]: 98* %; Test C disease control rating (Botrytis cinerea; [4]): 100* %; Test F disease control rating (Septoria nodorum; [4]): 35* %; Test I disease control rating [3, 4]: 91* %; Test D disease control rating (Alternaria solani; [4]): 99* %
COc1cc(OC)cc(-n2c(C)nc(Br)c2Cc2c(F)cc(F)cc2F)c1 [compound 535]	2%	0%	0%	0%	0%	0%	0%	
COc1ccc(F)c(-c2c(Cl)nc(Br)n2-c2ccc(Cl)cc2)c1Cl [compound 501]	95%	0%	99%	98%	98%	67%	99%	
Cc1nc(Cl)n(-c2ccc(Cl)c(F)c2)c1-c1cccnc1Cl [compound 360]	95%	9%	98%	100%	0%	99%	99%	
COc1ccc(F)c(-c2c(Cl)nc(Cl)n2-c2ccc(C)c(F)c2)c1F [compound 561]	100%	9%	100%	99%	97%	100%	100%	
COc1cc(F)c(-c2c(Cl)nc(Cl)n2-c2ccccc2)c(F)c1Cl [compound 428]	99%	0%	100%	100%	0%	100%	100%	
COc1cc(F)c(-c2c(Cl)nc(Br)n2-c2ccc(C)c(Cl)c2)c(F)c1 [compound 542]								Test G disease control rating (Septoria tritici; 40 ppm (marked *)): 97* %; Test H disease control rating ([1]; 40 ppm (marked *)): 0* %; Test J disease control rating ([2]; 40 ppm (marked *)): 89* %; Test C disease control rating (Botrytis cinerea; 40 ppm (marked *)): 99* %; Test F disease control rating (Septoria nodorum; 40 ppm (marked *)): 0* %; Test I disease control rating ([3]; 40 ppm (marked *)): 98* %; Test D disease control rating (Alternaria solani; 40 ppm (marked *)): 96* %
Cc1nc(C)n(-c2ccc(F)cc2)c1-c1c(F)cc(F)cc1F [compound 491]								Test G disease control rating (Septoria tritici; 40 ppm (marked *)): 91* %; Test H disease control rating ([1]; 40 ppm (marked *)): 0* %; Test J disease control rating ([2]; 40 ppm (marked *)): 0* %; Test C disease control rating (Botrytis cinerea; 40 ppm (marked *)): 92* %; Test F disease control rating (Septoria nodorum; 40 ppm (marked *)): 0* %; Test I disease control rating ([3]; 40 ppm (marked *)): 0* %; Test D disease control rating (Alternaria solani; 40 ppm (marked *)): 99* %
COc1cc(F)c(-c2c(Cl)nc(C)n2-c2cccc(OC(F)F)c2)c(F)c1 [compound 588]	97%	100%	100%	100%	100%	100%	100%	
Cc1cccc(-c2c(C)ncn2-c2ccc(Cl)c(F)c2)n1 [compound 375]	92%	32%	62%	99%	0%	68%	26%	
Cc1nc(C)n(-c2ccc(F)cc2Cl)c1-c1ccc(Cl)cc1 [compound 307]	97%	11%	99%	100%	0%	97%	99%	
